Laboratory results taken from patent publication US20210009583A1, “DEUTERATED IMIDAZOPYRIDINES” (UNIVERSITY OF NOTRE DAME DU LAC, priority 2018, published 2021).
Several values for one entry are separate records, joined by “and”; a condition that tells them apart may be missing. Identical values can stand only once. Entries after “also recorded” stand apart in the source; their conditions may differ. Like-named read-outs stand apart in the source and are kept apart here.

Legend:
M. tuberculosis = assay: Chronic Balb/c mouse model of M. tuberculosis infection; assay type: in vivo; details: for CFU drop (bacteriostatic activity) / Mouse survival: 4 weeks of oral dosing; for Spleen, gross necropsy observation: after 4 weeks of treatment, individual mice; for Lung Log10 CFU ± SEM / Spleen Log10 CFU ± SEM / Log reduction vs CTL (Lg) / Log reduction vs CTL (Sp): 4 Week Treatment; for Log reduction vs CTL (Lg): lung; for Log reduction vs CTL (Sp): spleen
[1] = Single dose pharmacokinetic study after oral administration, with and without ABT pre-dosing; assay type: in vivo, female Balb/c mice
Method: Based on MIC and acute toxicity data, two compounds ND-011176 and a deuterated analog ND-012101 were selected for evaluation in a single dose pharmacokinetic study (with and without pre-dosing of 1-Aminobenzotriazole, ABT) after oral administration to female Balb/c mice.
All animals were administered with the prepared test article via oral gavage at a target dose level of 200 mg/kg and at the dose volume detailed in the table 1 below. Each animal in Groups 2, 4, 6, 8 and 10 received a dose of ABT (100 mg/kg) via oral gavage two hours prior to Test Article administration.
Whole blood samples (0.1 mL each) were collected at the first time point via submandibular vein (SMV), or an appropriate peripheral vein if it was necessary. Up to 0.5 mL of whole blood was collected at terminal blood collection via intra cardiac puncture (ICP). For animals 1-3 from each of the 10 Groups, blood samples were collected at 0.5 and 4 hours after oral dosing. […]
The plasma samples and dose formulation samples were analyzed by the Testing Facility to determine the concentration of the test article using LC-MS/MS. PK parameters were estimated from the plasma concentration-time data by standard non-compartmental methods utilizing suitable analysis software.

[2] = Body weight at gross necropsy after 4 weeks of treatment (chronic model); assay type: in vivo, Balb/c mouse; details: individual mice
Method: When evaluated in the “Chronic Balb/c mouse model” of M. tuberculosis infection by the method of Lenaerts, A. J., et. al. 2005. Preclinical testing of the nitroimidazopyran PA-824 for activity against M. tuberculosis in a series of in vitro and in vivo models. AAC. 49(6):2294-301. ND-012101 at 200 mg/kg and ND-012101(100 mg/kg)+ABT (100 mg/kg) both achieved 100% mouse survival after 4 weeks of oral dosing.

[3] = 5 h (mean of the "8" and "12" TP samples taken before euthanasia), PO 200 mg/kg + 100 mg/kg ABT
[4] = female, Balb/c, mouse, in vivo, po, 200 mg/kg
[5] = mouse, in vivo, female Balb/c mice, single oral dose 200 mg/kg, no ABT

[2H]c1c(C([2H])([2H])[2H])c([2H])n2c(C(=O)NCc3ccc(C(F)(F)F)cc3)c(C)nc2c1[2H] [ND-012101]
CFU drop (bacteriostatic activity) (M. tuberculosis; 100 mg/kg + ABT 100 mg/kg): < 1 log CFU
Mouse survival (M. tuberculosis; 100 mg/kg + ABT 100 mg/kg): 100%
CFU drop (bacteriostatic activity) (M. tuberculosis; 200 mg/kg): < 1 log CFU
Mouse survival (M. tuberculosis; 200 mg/kg): 100%
Spleen, gross necropsy observation (M. tuberculosis; Group 3, ND-012101 + ABT): Slightly enlarged
Spleen, gross necropsy observation (M. tuberculosis; Group 6, ND-012101 alone): Slightly enlarged; also recorded: normal
Lung Log10 CFU ± SEM (M. tuberculosis; ND-012101 (100) + ABT (100)): 5.62 ± 0.06 Log10 CFU
Spleen Log10 CFU ± SEM (M. tuberculosis; ND-012101 (100) + ABT (100)): 4.80 ± 0.14 Log10 CFU
Lung Log10 CFU ± SEM (M. tuberculosis; ND-012101 (200)): 5.93 ± 0.08 Log10 CFU
Spleen Log10 CFU ± SEM (M. tuberculosis; ND-012101 (200)): 5.02 ± 0.08 Log10 CFU
Log reduction vs CTL (Lg) (M. tuberculosis; ND-012101 (100) + ABT (100)): 0.17
Log reduction vs CTL (Lg) (M. tuberculosis; ND-012101 (200)): −0.14
Log reduction vs CTL (Sp) (M. tuberculosis; ND-012101 (100) + ABT (100)): 0.20
Log reduction vs CTL (Sp) (M. tuberculosis; ND-012101 (200)): −0.02
Drug plasma concentration, individual mice ([1]; 0.5 h, PO 200 mg/kg + 100 mg/kg ABT): 22700 ng/mL and 19100 ng/mL
Drug plasma concentration, individual mice ([1]; 0.5 h, PO 200 mg/kg, no ABT, 200 mg/kg): 23100 ng/mL and 19900 ng/mL
Drug plasma concentration, individual mice ([1]; 2 h, PO 200 mg/kg + 100 mg/kg ABT): 37700 ng/mL and 35500 ng/mL
Drug plasma concentration, individual mice ([1]; 2 h, PO 200 mg/kg, no ABT, 200 mg/kg): 7900 ng/mL and 3080 ng/mL and 4590 ng/mL
Drug plasma concentration, individual mice ([1]; 4 h, PO 200 mg/kg + 100 mg/kg ABT): 47200 ng/mL and 35000 ng/mL
Drug plasma concentration, individual mice ([1]; 4 h, PO 200 mg/kg, no ABT, 200 mg/kg): 1350 ng/mL and 3490 ng/mL and 966 ng/mL
Drug plasma concentration, Average [1, 3]: 50017^^ ng/mL
Drug plasma concentration, individual mice [1, 3]: 49100^^ ng/mL and 47600^^ ng/mL and 53350^^ ng/mL
Drug plasma concentration, individual mice ([1]; 8 h, PO 200 mg/kg, no ABT, 200 mg/kg): 67.6 ng/mL and 22.3 ng/mL and 100 ng/mL
Drug plasma concentration, individual mice ([1]; 12 h, PO 200 mg/kg, no ABT, 200 mg/kg): 2.10 ng/mL and 1.19 ng/mL
Drug plasma concentration, individual mice ([1]; 24 h, PO 200 mg/kg, no ABT): BQL
% AUC Extrap ([1]; female Balb/c mice, single oral dose 200 mg/kg, no ABT): 0.00%
concentration at 0.5 h ([1]; female, Balb/c, mouse, in vivo, 0.5 h, PO 200 mg/kg + 100 mg/kg ABT, read-out: Drug plasma concentration, Average): 21700 ng/mL
concentration at 0.5 h ([1]; female, Balb/c, mouse, in vivo, 0.5 h, PO 200 mg/kg + 100 mg/kg ABT, read-out: Drug plasma concentration, individual mice): 23300 ng/mL
concentration at 2 h ([1]; female, Balb/c, mouse, in vivo, 2 h, PO 200 mg/kg + 100 mg/kg ABT, read-out: Drug plasma concentration, Average): 34300 ng/mL
concentration at 2 h ([1]; female, Balb/c, mouse, in vivo, 2 h, PO 200 mg/kg + 100 mg/kg ABT, read-out: Drug plasma concentration, individual mice): 29800 ng/mL
concentration at 4 h ([1]; female, Balb/c, mouse, in vivo, 4 h, PO 200 mg/kg + 100 mg/kg ABT, read-out: Drug plasma concentration, Average): 43500 ng/mL
concentration at 4 h ([1]; female, Balb/c, mouse, in vivo, 4 h, PO 200 mg/kg + 100 mg/kg ABT, read-out: Drug plasma concentration, individual mice): 48200 ng/mL
AUC(0-x)/Dose [1, 4]: 125 ng·h/mL/mg/kg
AUC(0-∞)/Dose [1, 4]: 125 ng·h/mL/mg/kg
Cmax/Dose [1, 4]: 96 ng/mL/mg/kg
concentration at 0.5 h ([1]; female, Balb/c, mouse, in vivo, po, 200 mg/kg, 0.5 h, PO 200 mg/kg, no ABT, read-out: Drug plasma concentration, Average): 19200 ng/mL
concentration at 0.5 h ([1]; female, Balb/c, mouse, in vivo, po, 200 mg/kg, 0.5 h, PO 200 mg/kg, no ABT, read-out: Drug plasma concentration, individual mice): 14700 ng/mL
concentration at 2 h ([1]; female, Balb/c, mouse, in vivo, po, 200 mg/kg, 2 h, PO 200 mg/kg, no ABT, read-out: Drug plasma concentration, Average): 5190 ng/mL
concentration at 4 h ([1]; female, Balb/c, mouse, in vivo, po, 200 mg/kg, 4 h, PO 200 mg/kg, no ABT, read-out: Drug plasma concentration, Average): 1940 ng/mL
concentration at 8 h ([1]; female, Balb/c, mouse, in vivo, po, 200 mg/kg, 8 h, PO 200 mg/kg, no ABT, read-out: Drug plasma concentration, Average): 63 ng/mL
concentration at 12 h ([1]; female, Balb/c, mouse, in vivo, po, 200 mg/kg, 12 h, PO 200 mg/kg, no ABT, read-out: Drug plasma concentration, Average): 2 ng/mL
concentration at 12 h ([1]; female, Balb/c, mouse, in vivo, po, 200 mg/kg, 12 h, PO 200 mg/kg, no ABT, read-out: Drug plasma concentration, individual mice): 2 ng/mL
Cmax ([1]; mouse, in vivo, female Balb/c mice, single oral dose 200 mg/kg, ABT 100 mg/kg PO 2 h before, manually added from the TA concentration data): 48400 ng/mL
AUC(0-inf) [1, 5]: 25000 ng·h/mL
Cmax [1, 5]: 19200 ng/mL
Tmax [1, 5]: 60 min
half-life [1, 5]: 47.4 min
AUC ([1]; mouse, in vivo, female Balb/c mice, single oral dose 200 mg/kg, no ABT, read-out: AUC(0-x)): 25000 ng·h/mL
Weight ([2]; Group 3, ND-012101 + ABT): 20.4 (2×) and 20.8 and 20.0 and 20.5 and 18.6
Weight ([2]; Group 6, ND-012101 alone): 21.5 (2×) and 20.7 and 20.3 and 19.9 and 20.8
